Read-outs that look alike come from different tables or passages of the source.
Key:
[1] = test system: PDE4H (HARBS); settings: cited from earlier work; for PDE4H/PDE4L ratio: references [24-26]
[2] = test system: PDE4L (LARBS); settings: reference [23]; read-out: EC50 for binding PDE4L; cited from earlier work
[3] = test system: PDE4H (HARBS); test: Literature binding to brain HARBS (PDE4H); settings: worked out from the cited EC50 values
From the text: Recently, in United States of American and Europe, the selective inhibitors for the PDE4 are considered as the important materials for treating asthma or chronic obstructive pulmonary disease (COPD). In addition, the clinical trials thereof are considered safe and effective, whereas they have side effects, such as vomiting, gastric hypersecretion, etc.. […] In the brain, there are two binding sites for rolipram, which are high (HARBS) and low affinity rolipram binding sites (LARBS), while in the periphery of bronchi and lung there exist only LARBS. Generally, the anti-inflammatory and the bronchodilatory effects of rolipram are considered as its ability to bind with LARBS [21]. […] Therefore, the pharmaceutical factories in the world are trying to develop drugs with high PDE4H/PDE4L ratio for separating the side effects from the main therapeutic effects, while some progresses are obtained. […] Although the respective PDE4H/PDE4L ratios of roflumilast and cilomilast are much higher than that of rolipram, they are not good enough. […] It seems having a good perspective.

[4] = biological target: T1, high affinity rolipram binding sites (HARBS, PDE4H); test: Binding to particulate HARBS of whole brain, displacement of [3H]-rolipram (Assay II); design: species or system guinea pig; settings: 2 nM [3H]-rolipram, guinea pig whole brain particulates, FIG. 2; read-out: IC50 for displacement of [3H]-rolipram from HARBS
T1 construct: IC50 for displacement of [3H]-rolipram from HARBS; other: 300 μM, guinea pig, preliminary experimental data; other: guinea pig whole brain particulates; over 300 μM not available due
Description: The binding experiments are carried on basis of the methods of Schneider et al. and Zhao et al. with a small modification. Under a protocol approved by the Animal Care and Use Committee of Taipei Medical University, five male guinea pigs (Hartley), weighing 500-600 g, were anesthetized. The whole brains taken therefrom were homogenized with in 10 volumes of cold medium (pH 6.5) containing 20 mM Bis-Tris, 2 mM benzamidine, 2 mM EDTA, 50 mM sodium chloride, 0.1 mM phenylmethanesulfonyl fluoride (PMSF), and 1 mM dithiothreitol. At 4° C., the homogenate was centrifuged at 170 g for 15 min for removing blood vessels and connective tissues, and the supernatant thereof was then re-centrifuged at 40,000 g for 30 min for separating the particulates from the cytosol of cells.
After incubation, the reaction was stopped by transferring the reaction vessel to a bath of crashed ice. Then the reaction mixture was filtered through a punched glass fiber filter (Whatman GF/B) placed in a mini funnel, which was adopted to a 1.5 ml of Eppendorff's tube for collecting the filtrate in the mini centrifuge at 1000 rpm for 10 seconds. By the same way (centrifugation), it is further washed with 0.3 ml reaction buffer each for three times. The Whatman GF/B filter was mixed with 2 ml of cocktail and counted by the β-scintillation counter (Backman, Fullerton, Calif., USA) for counting the radioactivity thereof.

PDE4H/PDE4L ratio [3] | IC50 [4] | SMILES | PDE4H/PDE4L ratio [1] | EC50 ([1]; reference [23], read-out: EC50 for binding PDE4H) | EC50 [2]
 |  | COc1ccc([C@]2(C#N)CC[C@@H](C(=O)O)CC2)cc1OC1CCCC1 [cilomilast] | about 1 |  | 
0.002 | 7.4 nM | COc1ccc(C2CNC(=O)C2)cc1OC1CCCC1 (stereo not drawn) [rolipram] |  | ~2 nM | ~1000 nM
 |  | O=C(Nc1c(Cl)cncc1Cl)c1ccc(OC(F)F)c(OCC2CC2)c1 [roflumilast] | 3 |  | 
